Our source for the fold induction values is US20140018384A1, “QUINOLINONE DERIVATIVES FOR USE IN THE TREATMENT OF AN AUTOIMMUNE DISEASE AND/OR AN INFLAMMATORY DISEASE” (PRONOXIS AB, priority 2011, published 2014).

Structures are written as SMILES. Read-outs that look alike come from different tables or passages of the source.

This assay has as its system PLB-985 cells. The experiment in a line: ROS production (isoluminol/HRP luminescence) in PLB-985 cells, Biological Example 1. The class given is cell-based. The protocol:
To cells (HL-60 or PLB-985) in HBSS medium was added compound (25 or 50 μM), isoluminol and Horse Radish Peroxidase, fraction II. Luminescence was measured for 10-30 minutes and the area under the […] curve was divided by that from a control experiment to give the activity expressed as fold change.
Each assay indicated below was performed at a different site, at a different time, by different personnel and/or using different cell lines, concentrations and controls. The cell line, concentration of example compound and control used in respect of each assay were as indicated below. The values obtained from these different setups (each using an otherwise identical assay) are given as Activity A, B, C, D or E in Table 5 below. The values are expressed as fold increase of NADPH activity in the presence of the relevant of compound (as indicated below) compared to the relevant control (as indicated below).
Activity A: HL-60 cells; 50 μM compound vs. blank Activity B: PLB-985 cells; 25 μM compound vs. blank Activity C, D and E: PLB-985 cells; 25 μM compound vs. DMSO

Where [1] appears, read: 25 μM compound vs. DMSO, setup C, read-out: Activity C (fold increase of NADPH activity compared to control).
Setting [2] is: 25 μM compound vs. DMSO, setup D, read-out: Activity D (fold increase of NADPH activity compared to control).
The mark [3] stands for this setting: 25 μM compound vs. blank, read-out: Activity B (fold increase of NADPH activity compared to control).
[4] abbreviates: 25 μM compound vs. DMSO, setup E, read-out: Activity E (fold increase of NADPH activity compared to control).

In the case of `COc1ccc(NC(=O)Cn2cc(C(=O)c3ccc(F)cc3)c(=O)c3cc4c(cc32)OCO4)cc1` [Example 54, N-p-Anisyl-2-[(4-fluorobenzoyl)-6,7-methylenedioxy-4-oxo-1-quinolinyl]acetamide], the fold induction at 25 µM was 61.5 under setting [1], 13.5 under setting [2] and 74.2 under setting [3].

For the molecule `CCOc1ccc(C(=O)c2cn(CC(=O)Nc3ccc4c(c3)OCCO4)c3cc4c(cc3c2=O)OCO4)cc1` [Example 66, 2-[3-(4-Ethoxybenzoyl)-6,7-methylenedioxy-4-oxo-1-quinolinyl]-N-(3,4-ethylenedioxyphenyl)acetamide], the fold induction at 25 µM runs as follows: under setting [1], 2.5; under setting [3], 2.7.

With `COc1ccc(NC(=O)Cn2cc(C(=O)c3ccc(F)cc3)c(=O)c3cc(OC)ccc32)cc1` [Example 107, N-p-Anisyl-2-[3-(4-fluorobenzoyl)-6-methoxy-4-oxo-1-quinolinyl]acetamide], under setting [2], the fold induction at 25 µM is 6.6.

With `CCOc1ccc(C(=O)c2cn(CC(=O)Nc3ccc(Cl)cc3)c3cc4c(cc3c2=O)OCO4)cc1` [Example 61, N-(4-Chlorophenyl)-2-[3-(4-ethoxybenzoyl)-6,7-methylenedioxy-4-oxo-1-quinolinyl]acetamide], the fold induction at 25 µM amounted to 28.5 under setting [1] and 35.9 under setting [3].

For the molecule `COc1cccc(NC(=O)Cn2cc(C(=O)c3ccc4ccccc4c3)c(=O)c3cc4c(cc32)OCO4)c1` [Example 3, N-m-Anisyl-2-[6,7-methylenedioxy-3-(2-naphthoyl)-4-oxo-1-quinolinyl]acetamide], the fold induction at 25 µM under setting [4] stood at 1.8.

Take `CCOc1ccc(C(=O)c2cn(CC(=O)Nc3ccc(OC)cc3OC)c3cc4c(cc3c2=O)OCO4)cc1` [Example 65, N-(2,4-Dimethoxyphenyl)-2-[3-(4-ethoxybenzoyl)-6,7-methylenedioxy-4-oxo-1-quinolinyl]acetamide]: the fold induction at 25 µM under setting [1] is 2.8 and the fold induction at 25 µM under setting [3] turned out to be 4.1.

Turning to `COc1ccc2c(n1)c(=O)c(C(=O)c1ccc(F)cc1)cn2CC(=O)Nc1ccc(C(F)(F)F)cc1` [Example 40, 2-[3-(4-Fluorobenzoyl)-6-methoxy-4-oxo-1,5-naphthyridin-1-yl]-N-(4-trifluoromethylphenyl)acetamide], under setting [4], the fold induction at 25 µM is 73.

Consider `COc1ccc(NC(=O)Cn2cc(C(=O)c3ccc(F)cc3)c(=O)c3cc4c(cc32)OCCO4)cc1` [Example 108, N-p-Anisyl-2-[6,7-ethylenedioxy-3-(4-fluorobenzoyl)-4-oxo-1-quinolinyl]acetamide], for which the fold induction at 25 µM under setting [2] came out at 1.3.

Regarding `COc1ccc2c(n1)c(=O)c(C(=O)c1ccc3ccccc3c1)cn2CC(=O)Nc1ccc(Cl)cc1` [Example 21, N-(4-Chlorophenyl)-2-[6-methoxy-3-(2-naphthoyl)-4-oxo-(1,5-naphthyridin-1-yl)]acetamide], the fold induction at 25 µM came out at 68.7 under setting [2] and 9.2 under setting [4].

`COc1ccc(NC(=O)Cn2cc(C(=O)c3ccc(F)cc3)c(=O)c3cc(F)ccc32)cc1` [Example 106, N-p-Anisyl-2-[6-fluoro-3-(4-fluorobenzoyl)-4-oxo-1-quinolinyl]acetamide]: under setting [2], the fold induction at 25 µM turned out to be 5.6.

For the molecule `COc1ccc2c(c1)c(=O)c(C(=O)c1ccc(F)cc1)cn2CC(=O)Nc1ccc(C)cc1` [Example 37, 2-[3-(4-fluorobenzoyl)-6-methoxy-4-oxo-1-quinolinyl]-N-p-tolylacetamide], under setting [4], the fold induction at 25 µM is 8.4.

Take `CN(C(=O)Cn1cc(C(=O)c2ccc3ccccc3c2)c(=O)c2cc3c(cc21)OCO3)c1ccc(Cl)cc1` [Example 15, N-(4-Chlorophenyl)-N-methyl-2-[6,7-methylenedioxy-3-(2-naphthoyl)-4-oxo-1-quinolinyl]acetamide]: under setting [4], the fold induction at 25 µM was 4.3.

On to `O=C(Cn1cc(C(=O)c2cccnc2)c(=O)c2cc3c(cc21)OCO3)Nc1ccc(Cl)cn1` [Example 34, N-(5-Chloro-2-pyridyl)-2-(6,7-methylenedioxy-3-nicotinoyl-4-oxo-1-quinolinyl)acetamide], for which, under setting [1], the fold induction at 25 µM came out at 27.5.

In the case of `O=C(Cn1cc(C(=O)c2ccc(Cl)cc2)c(=O)c2cc3c(cc21)OCO3)Nc1ccc2c(c1)OCO2` [Example 88, 2-[3-(4-Chlorobenzoyl)-6,7-methylenedioxy-4-oxo-1-quinolinyl]-N-(3,4-methylenedioxyphenyl)acetamide], the fold induction at 25 µM under setting [1] worked out at 31.4.

Regarding `COc1cc2c(=O)c(C(=O)c3ccc4ccccc4c3)cn(CC(=O)Nc3ccc(Cl)cc3)c2cc1OC` [Example 17, N-(4-Chlorophenyl)-2-[6,7-dimethoxy-3-(2-naphthoyl)-4-oxo-1-quinolinyl]acetamide], under setting [2], the fold induction at 25 µM was 16.3.

As for `O=C(Cn1cc(S(=O)(=O)c2ccccc2)c(=O)c2cc3c(cc21)OCO3)Nc1ccc(F)cc1` [Example 80, 2-(3-Benzenesulfonyl-6,7-methylenedioxy-4-oxo-1-quinolinyl)-N-(4-fluorophenyl)acetamide], the fold induction at 25 µM under setting [1] was 3.2.

`CCc1ccc(C(=O)c2cn(CC(=O)Nc3ccc(Cl)cc3)c3cc4c(cc3c2=O)OCO4)cc1` [Example 53, N-(4-Chlorophenyl)-2-[3-(4-ethylbenzoyl)-6,7-methylenedioxy-4-oxo-1-quinolinyl]acetamide]: under setting [3], the fold induction at 25 µM amounted to 150.

Regarding `O=C(Cn1cc(C(=O)c2ccc3ccccc3c2)c(=O)c2cc3c(cc21)OCO3)Nc1ccc(Cl)cn1` [Example 28, N-(5-Chloro-2-pyridyl)-2-[6,7-methylenedioxy-3-(2-naphthoyl)-4-oxo-1-quinolinyl]-acetamide], the fold induction at 25 µM under setting [1] was 16.1.

As for `Cc1ccc(C(=O)c2cn(CC(=O)Nc3ccc(F)cc3)c3cc4c(cc3c2=O)OCO4)cc1` [Example 62, N-(4-Fluorophenyl)-2-(6,7-methylenedioxy-4-oxo-3-p-toluoyl-1-quinolinyl)acetamide], the fold induction at 25 µM reads like this: under setting [1], 26.1; under setting [3], 51.

For `COc1cc2c(=O)c(C(=O)c3ccc4ccccc4c3)cn(CC(=O)Nc3ccc(Cl)cc3)c2cn1` [Example 24, N-(4-Chlorophenyl)-2-[6-methoxy-3-(2-naphthoyl)-4-oxo-(1,7-naphthyridin-1-yl)]-acetamide], under setting [4], the fold induction at 25 µM is 1.7.

For `CCOc1ccc(C(=O)c2cn(CC(=O)Nc3ccc(F)c(F)c3)c3cc4c(cc3c2=O)OCO4)cc1` [Example 67, N-(3,4-Difluorophenyl)-2-[3-(4-ethoxybenzoyl)-6,7-methylenedioxy-4-oxo-1-quinolinyl]acetamide], the fold induction at 25 µM is, setting by setting: under setting [1], 1.8; under setting [3], 2.3.

For the molecule `COc1ccc(C(=O)c2cn(CC(=O)Nc3ccc(Cl)cc3)c3cc4c(cc3c2=O)OCO4)cc1` [Example 29, 2-[3-p-Anisoyl-6,7-methylenedioxy-4-oxo-1-quinolinyl]-N-(4-chlorophenyl)acetamide], the fold induction at 25 µM under setting [1] is 55.

On to `Cc1ccc(C(=O)c2cn(CC(=O)Nc3ccc4c(c3)OCO4)c3cc4c(cc3c2=O)OCO4)cc1C` [Example 76, 2-[3-(3,4-Dimethylbenzoyl)-6,7-methylenedioxy-4-oxo-1-quinolinyl]-N-(3,4-methylenedioxyphenyl)-acetamide], for which the fold induction at 25 µM under setting [1] was 23.9 and the fold induction at 25 µM under setting [3] was determined as 43.6.

In the case of `O=C(Cn1cc(C(=O)c2ccc3ccccc3c2)c(=O)c2cc3c(cc21)OCO3)Nc1ccc(Cl)cc1Cl` [Example 6, N-(2,4-DichlorophenyI)-2-[6,7-methylenedioxy-3-(2-naphthoyl)-4-oxo-1-quinolinyl]acetamide], the fold induction at 25 µM under setting [4] is 1.7.

`Cc1ccc(C(=O)c2cn(CC(=O)Nc3ccc(Cl)cc3)c3cc4c(cc3c2=O)OCO4)cc1` [Example 49, N-(4-Chlorophenyl)-2-(3-p-toluoyl-6,7-methylenedioxy-4-oxo-1-quinolinyl)acetamide]: the fold induction at 25 µM by setting is: under setting [1], 56.4; under setting [3], 152.

`O=C(Cn1cc(C(=O)c2ccccc2)c(=O)c2cc3c(cc21)OCO3)Nc1ccc(F)cc1` [Example 63, 2-(3-Benzoyl-6,7-methylenedioxy-4-oxo-1-quinolinyl)-N-(4-fluorophenyl)acetamide]: the fold induction at 25 µM amounted to 24.3 under setting [1] and 37.3 under setting [3].

`O=C(Cn1cc(C(=O)c2ccc(F)cc2)c(=O)c2cc3c(cc21)OCO3)Nc1ccc(Cl)cn1` [Example 33, N-(5-Chloro-2-pyridyl)-2-[3-(4-fluorobenzoyl)-6,7-methylenedioxy-4-oxo-1-quinolinyl]acetamide]: under setting [1], the fold induction at 25 µM is 45.6.

Turning to `COc1cc2c(cn1)c(=O)c(C(=O)c1ccc3ccccc3c1)cn2CC(=O)Nc1ccc(Cl)cc1` [Example 23, N-(4-Chlorophenyl)-2-[7-methoxy-3-(2-naphthoyl)-4-oxo-(1,6-naphthyridin-1-yl)]-acetamide], the fold induction at 25 µM under setting [4] is 2.1.

`O=C(Cn1cc(C(=O)c2ccc(Cl)cc2)c(=O)c2cc3c(cc21)OCO3)Nc1ccc2c(c1)OCCO2` [Example 60, 2-[3-(4-Chlorobenzoyl)-6,7-methylenedioxy-4-oxo-1-quinolinyl]-N-(3,4-ethylenedioxyphenyl)acetamide]: the fold induction at 25 µM runs as follows: under setting [1], 33.3; under setting [3], 51.8.
